Like-named read-outs stand apart in the source and are kept apart here.
How the values were obtained:
[1] = test system: citric acid aerosol induced cough; experiment: animal or person; assay type: in vivo, Wistar rats; settings: for ED50: Rattus norvegicus, read-out: AtD50
Description: The anti-tussive activity in rats was tested by the method of Gosswald. Wistar rats weighing 130 to 180 g were placed in a plexi box (23 × 22 × 11 cm) and cough responses were elicited by citric acid aerosol (10%). The latency period of cough was measured before and after drug administration. The control latency was determined 18 hours before the drug administration. Animals with less than 60 second control latency were used for the experiments. […] Each animal was exposed to citric acid aerosol for a period of 3 minutes 30 seconds and 60 minutes after drug administration. […] Ten animals were used at each dose level. The anti-tussive dose (AtD50) was calculated according to Litchfield and Wilcoxon. The drugs were administered by subcutaneous and oral routes.

[2] = test system: electrical stimulation induced coughing; experiment: Anti-tussive activity: electrical stimulation (superior laryngeal nerve) induced coughing in cats (method of Domenjoz); assay type: in vivo; settings: for ED100 / ED50: Felis catus; for ED100: read-out: AtD100; for ED50: read-out: AtD50
Description: Anti-tussive activity in cats was determined by the method of Domenjoz. Cats weighing 2.5 to 3.5 kg were anesthetized with an i.p. dose of 30 mg per kg of sodium pentobarbitone. […] The cough responses were measured by means of a Marey-tambour connected to a face mask and recorded on a smoked paper. Drugs were given intravenously in increasing doses. The effect of each dose was measured on at least five cats. The effects of the drug was calculated from the changes of amplitude of cough curves. If no coughing was produced by two successive stimulations, the dose was taken as the effective anti-tussive dose (AtD100). The anti-tussive dose (AtD50) which reduces the control response by 50% was calculated by the method of Litchfield and Wilcoxon.

[3] = Blood pressure changes in anesthetized cats; settings: for Change in blood pressure: drop from control
Description: Blood pressure changes were studied in cats anesthetized with pentabarbitone sodium (35 mg/kg, i.p.). The substances were injected into the right femoral vein, responses to drugs were measured by means of a mercury manometer and recorded on a smoke cylinder.

[4] = Description: ^++ D'Amour,D.E. and Smith,D.L.: J.Pharm.Expt.Ther. 72. 74 (1941)
[5] = Analgesic ED50, hot plate test, i.p. (footnote of Table 4); assay type: in vivo; settings: for ED50: ip, read-out: ED50 (analgesic)
Description: 0.025 mg./kg. i.p., Compound "A": 0.0125 mg./kg. i.p. (measured by the ho

Remark: listed apart in the source
in vivo = settings: rat, sc
[6] = Analgesic activity, writhing test (Van der Wende and Margolin), s.c., mice; settings: Mus musculus, sc, read-out: ED50 (Writhing test)
[7] = Physical dependency disposition test (spring-test; jumping after naloxone) for 2 days on mice; settings: Haloxone 100 mg./kg., 2nd day; for Average jump per mouse: mice
Description: ^+ The total dosage was added intraperitoneally in seven, gradually
increasing increments, within 26 hours.

[8] = sc, rats, s.c., limits in brackets
[9] = iv, cats, i.v., no coughing by two successive stimulations
[10] = anesthetized cats, 0.5 mg/kg i.v.
[11] = anesthetized cats, 0.5 mg/kg i.v., means ± S.E.
[12] = cats, i.v., no coughing by two successive stimulations
[13] = rats, s.c., 95% confidence limits on the next line
[14] = rats, s.c., 95% confidence limits given
[15] = total dosage 1 i.p. in 26 hours
[16] = total dosage 10 i.p. in 26 hours
[17] = total dosage 40 i.p. in 26 hours
[18] = total dosage 70 i.p. in 26 hours
[19] = total dosage 100 i.p. in 26 hours
[20] = total dosage 200 i.p. in 26 hours
[21] = total dosage 400 i.p. in 26 hours
[22] = total dosage 1000 i.p. in 26 hours

COc1ccc2c3c1O[C@H]1C(N=[N+]=[N-])CC[C@@]4(O)[C@@H](C2)N(C)CC[C@]314 (some centres unmarked) [14-OH-azidocodeine]
ED50 [1, 8]: 0.82 mg/kg
Ratio codeine/drug (AtD50) ([1]; rats, s.c.): 23.17
ED100 [2, 9]: 1.47 ± 0.07 mg/kg
ED50 ([2]; iv, cats, i.v.): 0.6 mg/kg
Ratio codeine/drug (AtD50) ([2]; cats, i.v.): 2.42
Ratio codeine/drug (AtD100) ([2]; cats, i.v.): 2.91
Change in blood pressure [3, 10]: 3 ± 1.3 mm Hg
Blood pressure after drug [3, 11]: 126 ± 6.6 mm Hg
blood pressure effect in words ([3]; anesthetized cats, i.v.): The substances studied, except azidocodeine and 14-hydroxy-azidocodeine, lowered blood pressure

COc1ccc2c3c1O[C@H]1[C@H](N=[N+]=[N-])CC[C@H]4[C@@H](C2)N(C)CC[C@@]341 [Azidocodeine]
Ratio codeine/drug (AtD50) ([1]; rats, s.c.): 12.10
AtD50 ([1]; rats, s.c., limits in brackets): 1.57 (1.20-2.41) mg/kg s.c.
AtD50 ([2]; cats, i.v.): 0.40 mg/kg i.v.
Ratio codeine/drug (AtD50) ([2]; cats, i.v.): 3.63
Ratio codeine/drug (AtD100) ([2]; cats, i.v.): 4.69
AtD100 [2, 12]: 1.08 ± 0.04 mg/kg i.v.
Change in blood pressure [3, 10]: 6 ± 3.8 mm Hg
Blood pressure after drug [3, 11]: 122 ± 5.2 mm Hg
blood pressure effect in words ([3]; anesthetized cats, i.v.): The substances studied, except azidocodeine and 14-hydroxy-azidocodeine, lowered blood pressure

CN1CC[C@]23c4c5ccc(O)c4O[C@H]2[C@H](N=[N+]=[N-])CC[C@H]3[C@H]1C5 [Azidomorphine, 6-deoxy-6-azido-7,8-dihydroisomorphine]
ED50 (tail flick test) [4, 13]: 0.012 s.c. mg./kg.
ED50 [1, 8]: 0.034 mg/kg
Ratio codeine/drug (AtD50) ([1]; rats, s.c.): 558.82
Change in blood pressure ([3]; anesthetized cats, 0.0035 mg/kg i.v.): 40 ± 3.4 mm Hg
Blood pressure after drug ([3]; anesthetized cats, 0.0035 mg/kg i.v., means ± S.E.): 103 ± 9.3 mm Hg
tolerance to the vasodepressor responses ([3]; in vivo): cross tolerance between morphine, codeine, azidomorphine and 14-hydroxyazidomorphine* was observed
ED50 [5]: 0.025 mg/kg
ED50 (hot plate) [14]: 0.016 mg./kg.s.c.
LD50 (in vivo): 13 mg/kg
ED50 [6]: 0.013 mg/kg
Average jump per mouse [7, 15]: 0.0
Average jump per mouse [7, 16]: 1.4
Average jump per mouse [7, 17]: 10.1
Average jump per mouse [7, 18]: 7.4
Jumping mice/examined mice [7, 15]: 0/25
Jumping mice/examined mice [7, 16]: 10/25
Jumping mice/examined mice [7, 17]: 19/25
Jumping mice/examined mice [7, 18]: 12/25

COc1ccc2c3c1O[C@H]1[C@@H](O)C=C[C@H]4[C@@H](C2)N(C)CC[C@@]341 [Codeine]
ED50 [1, 8]: 19 mg/kg
ED50 ([1]; rats, oral, limits in brackets): 100 mg/kg
ED100 [2, 9]: 5.07 ± 1.87 mg/kg
ED50 ([2]; iv, cats, i.v.): 1.45 mg/kg
Change in blood pressure ([3]; anesthetized cats, 1.5 mg/kg i.v.): 26 ± 4.9 mm Hg
Blood pressure after drug ([3]; anesthetized cats, 1.5 mg/kg i.v., means ± S.E.): 98 ± 5.3 mm Hg
tolerance to the vasodepressor responses ([3]; anesthetized cats, successive administrations): cross tolerance between morphine, codeine, azidomorphine and 14-hydroxyazidomorphine* was observed

CN1CC[C@]23c4c5ccc(O)c4O[C@H]2[C@H](N=[N+]=[N-])CC[C@@]3(O)[C@H]1C5 [Compound "A", 6-deoxy-6-azido-14-hydroxy-7,8-dihydroisomorphine]
ED50 (tail flick test) [4, 13]: 0.029 s.c. mg./kg.
ED50 ([1]; po): 10 mg/kg
ED50 [1, 8]: 0.021 mg/kg
anti-tussive activity in words ([1]; rat, in vivo): superior anti-tussive to those anti-tussives currently in use
Ratio codeine/drug (AtD50) ([1]; rat, in vivo, po): 10.00
potency as an anti-tussive relative to codeine ([1]; rat, in vivo, sc): 904 times
Ratio codeine/drug (AtD50) ([1]; rats, s.c.): 904.76
ED50 ([2]; iv): 0.012 mg/kg
ED100 ([2]; iv): 0.02 ± 0.002 mg/kg
Ratio codeine/drug (AtD50) ([2]; in vivo, iv): 120.83
Ratio codeine/drug (AtD100) ([2]; in vivo, iv): 253.50
tolerance to the vasodepressor responses ([3]; in vivo): cross tolerance between morphine, codeine, azidomorphine and 14-hydroxyazidomorphine* was observed
blood pressure effect in words ([3]; in vivo, iv): greatest drop in blood pressure of all compounds tested
Blood pressure after drug ([3]; in vivo, iv, 0.035 mg/kg): 97 ± 4.5 mm Hg
ED50 ([5]; hot plate test): 0.0125 mg/kg
therapeutical indices in words (rat, in vivo): more favorable therapeutical indices than any of the known substances with similar biological activities
ED50 (hot plate) [14]: 0.012 mg./kg.s.c.
LD50 (in vivo): 200 mg/kg
ED50 [6]: 0.051 mg/kg
Average jump per mouse [7, 16]: 0.9
Average jump per mouse [7, 18]: 3.8
Jumping mice/examined mice [7, 16]: 3/25
Jumping mice/examined mice [7, 18]: 14.25

CCC(=O)C(CC(C)N(C)C)(c1ccccc1)c1ccccc1 (centres unmarked) [Methadone]
ED50 (tail flick test) ([4]; rat, in vivo, sc): 1.6 s.c. mg./kg.
ED50 (hot plate) (rat, in vivo, sc): 1.9 mg./kg.s.c.
LD50 (in vivo): 28 mg/kg
ED50 [6]: 0.71 mg/kg

CN1CC[C@]23c4c5ccc(O)c4O[C@H]2[C@@H](O)C=C[C@H]3[C@H]1C5 [Morphine]
ED50 (tail flick test) ([4]; rat, in vivo, sc): 1.8 s.c. mg./kg.
ED50 ([2]; iv): 0.61 mg/kg
AtD100 [2, 12]: 1.28 ± 0.32 mg/kg i.v.
Change in blood pressure ([3]; anesthetized cats, 1.03 mg/kg i.v.): 39 ± 2.1 mm Hg
Blood pressure after drug ([3]; anesthetized cats, 1.03 mg/kg i.v., means ± S.E.): 92 ± 1.0 mm Hg
blood pressure effect in words ([3]; anesthetized cats, i.v.): only morphine produced a biphasic hypotensive effect
ED50 (analgesic) ([5]; i.p., hot plate test): 5 mg./kg. i.p.
ED50 (hot plate) (rat, in vivo, sc): 4.7 mg./kg.s.c.
ED50 [6]: 0.69 mg/kg
Average jump per mouse [7, 19]: 9.7
Average jump per mouse [7, 20]: 46.4
Average jump per mouse [7, 21]: 42.7
Average jump per mouse [7, 22]: 48.7
Jumping mice/examined mice [7, 19]: 20/25
Jumping mice/examined mice [7, 20]: 25/25
Jumping mice/examined mice [7, 21]: 25/25
Jumping mice/examined mice [7, 22]: 25/25

CC(C)=CCN1CCC2(C)c3cc(O)ccc3CC1C2C (centres unmarked) [Pentazocine]
ED50 (tail flick test) [4, 13]: 12 s.c. mg./kg.
ED50 (hot plate) [14]: 9.1 mg./kg.s.c.
LD50 (in vivo): 280 mg/kg
ED50 [6]: 8.1 mg/kg

CCOC(=O)C1(c2ccccc2)CCN(C)CC1 [Petidine]
ED50 (tail flick test) [4, 13]: 4.3 s.c. mg./kg.
ED50 (hot plate) [14]: 4.9 mg./kg.s.c.
LD50 (in vivo): 280 mg/kg
ED50 [6]: 3.3 mg/kg

Source: patent publication US4144236A (priority 1973, dated 1979)
